One experiment has as its system bromodomain. Nature of the experiment: Bromodomain cell assays of Example 40 (at least one of them). It counts as cell-based. As to conditions: in at least one of the bromodomain cell assays described in Example 40. From the text: (§1) Published bromodomain inhibitors JQ1 and iBET 151 have shown activity in variety of cancer cells such leukemia and lymphoma, multiple myeloma cells, NUT midline carcinoma and glioblastoma cells (Dawson M A et al. 2011; Delmore J E 2011; Chen Z et al. 2013; Filippakopoulos P et al. 2010; Mertz J A et al. 2011; Ott C J et al. 2012). In this study, we test compounds in different cancer cell lines. MV-4-11 and MOLM-13 are AML cell lines harboring a MLL-AF4 and MLL-AF9 translocation, respectively. MM.1S is a multiple myeloma cell line. SK-N-AS, IMR-32 and SK-N-BE(2) are neuroblastoma cell lines. IMR-32 and SK-N-BE(2) cell lines harbor MYCN amplifications. MV-4-11, MM.1S, IMR-32, SK-N-AS and SK-N-BE(2) were obtained from ATCC (IL, USA) and MOLM-13 were purchased from DSMZ (Braunschweig, German). Cells are cultured as recommended by their sources. For growth inhibition studies 3000 cells are seeded in wells of a 96-well plate in 75 μL of culture media. After several hours, growth media containing compounds of formula (I) are added to the wells. Compound at a maximal concentration of 5 mM was serially diluted 1:3 for a total of 8 point titration with DMSO as a control. A 1 μL aliquot of each dilution point is added to 249 μL growth media and 75 μL is added to each well containing cells, providing 10 μM compound at the maximum concentration point. The final concentration of DMSO in all wells is 0.2%. Cells are incubated for 72 hours, and 25 μL of CellTiter Glo Reagent (Promega Ga., USA) is added to each well. Plates are shaken for approximately 10 minutes and chemiluminescent signal is read on Tecan microplate reader. The measured luminescence correlates directly with cell number.
(§2) All data is normalized to the mean of eight DMSO high control wells on each plate. A four parameter curve fit of the following formula was then applied: Y=a+(b−a)/(1+(x/c)^d) Where ‘a’ is the minimum, ‘b’ is the maximum, ‘c’ is the pIC50 and ‘d’ is the Hill slope. […] Myc Reporter Assay
In MV-4-11 cells, BRD2, BRD3 and BRD4 bind to the promoter region of MYC and regulate its transcription (Dawson M A et al. 2011). The literature bromodomain inhibitor iBET 151 could disrupt BRD4 recruitment to the MYC promoter and subsequently downregulate c-myc transcription (Dawson M A et al. 2011). Myc protein is a transcription factor that heterodimerizes with an obligatory partner Max and regulates the transcription of genes important for cell proliferation, differentiation, and apoptosis. This Myc reporter assay is used to monitor the inhibitory effect of compound of formula (I) on Myc dependent gene expression. Effective compounds could have potential therapeutic effects in Myc-driven tumors.
The MV-4-11 Myc reporter cell line is established by infecting MV-4-11 with VSV-g pseudotyped lentivirus expressing the firefly luciferase gene under the control of a minimal (m) CMV promoter and tandem repeats of the E-box transcriptional response element (TRE) (Qiagen IL, USA) and selecting cells in […] Puromycin.
The MV-4-11 Myc reporter cell line is maintained in Iscove's Modified Dulbecco's Medium containing 10% FBS, 1% PenStep and 2.5 μg/ml Puromycin. Cells are incubated at 37° C. in a humidified atmosphere with 5% CO2. 25,000 cells are seeded in 96-well plate in 50 μL of culture media. After several hours, growth media containing 2× compounds are added to the wells. Compound at a maximal concentration of 5 mM is serially diluted 1:3 for a total of 8 point titration. A 1 μl aliquot of each dilution point is added to 249 μl growth media and 50 μl is added to each well containing cells, providing 10 μM compound at the maximum concentration point. DMSO treated cells serve as a high control and 10 μM JQ1 treated cells serve as a low control. Cells are incubated for a further 24 hours and 25 μL of CellTiter-Fluo Reagent (Promega Ga., USA) is added to each well. Plates are shaken for approximately 2 minutes and incubated at 37° C. for 0.5 hour. […]

In another experiment the test system is MV-4-11. Description: Oncology cell growth assay MV-4-11 (CellTiter Glo, 72 hours). The format is cell-based. The following applies: Homo sapiens, MV4-11, 72 h; MV-4-11 cell growth inhibitory activity, 3d.
Source text: as §1, §2
The following table provides data indicating the BRD4 biochemical inhibitory activity and MV-4-11 cell growth inhibitory activity for exemplary compounds as described herein.

For `Cc1noc(C)c1-c1cnc2[nH]cc(C(O)c3ccccc3Cl)c2c1` (stereo not drawn) [P-0019, (2-chlorophenyl)-[5-(3,5-dimethylisoxazol-4-yl)-1H-pyrrolo[2,3-b]pyridin-3-yl]methanol], the IC50 is < 10 µM in the experiment on bromodomain and ≤ 1 µM with MV-4-11.
Regarding `COC(c1ccccc1Cl)c1c[nH]c2ncc(-c3c(C)noc3C)cc12` (stereo not drawn) [P-0020, 4-[3-[(2-chlorophenyl)-methoxy-methyl]-1H-pyrrolo[2,3-b]pyridin-5-yl]-3,5-dimethyl-isoxazole], the half-maximal inhibitory concentration (IC50) in the experiment with bromodomain is < 10 µM; in the experiment with MV-4-11, ≤ 1 µM.
For `Cc1noc(C)c1-c1cnc2[nH]cc(C(O)c3c(F)cccc3Cl)c2c1` (stereo not drawn) [P-0021, (2-chloro-6-fluoro-phenyl)-[5-(3,5-dimethylisoxazol-4-yl)-1H-pyrrolo[2,3-b]pyridin-3-yl] methanol], the IC50 in the experiment with bromodomain was < 10 µM; with MV-4-11 it was ≤ 1 µM.
On to `COc1ncc(F)cc1C(O)c1c[nH]c2ncc(-c3c(C)noc3C)cc12` (stereo not drawn) [P-0022, [5-(3,5-dimethylisoxazol-4-yl)-1H-pyrrolo[2,3-b]pyridin-3-yl]-(5-fluoro-2-methoxy-3-pyridyl)methanol], for which the IC50 is < 10 µM with bromodomain and ≤ 1 µM in the experiment on MV-4-11.
For `Cc1noc(C)c1-c1cnc2[nH]cc(C3(O)CCC(F)(F)CC3)c2c1` [P-0024, 1-[5-(3,5-dimethylisoxazol-4-yl)-1H-pyrrolo[2,3-b]pyridin-3-yl]-4,4-difluoro-cyclohexanol] the same measures were < 10 µM and 1 to 10 µM.
Take `COc1ncc(C(O)c2c[nH]c3ncc(-c4c(C)noc4C)cc23)cc1F` (stereo not drawn) [P-0025, [5-(3,5-dimethylisoxazol-4-yl)-1H-pyrrolo[2,3-b]pyridin-3-yl]-(5-fluoro-6-methoxy-3-pyridyl)methanol]: the IC50 with bromodomain was < 10 µM; in the experiment on MV-4-11 it was 1 to 10 µM.
For `Cc1noc(C)c1-c1cnc2[nH]cc(Cc3ccccc3Cl)c2c1` [P-0026, 4-[3-[(2-chlorophenyl)methyl]-1H-pyrrolo[2,3-b]pyridin-5-yl]-3,5-dimethyl-isoxazole], the IC50 in the experiment with bromodomain is < 10 µM; with MV-4-11 it was 1 to 10 µM.
Regarding `Cc1noc(C)c1-c1cnc2[nH]cc(Cc3c(F)cccc3Cl)c2c1` [P-0027, 4-[3-[(2-chloro-6-fluoro-phenyl)methyl]-1H-pyrrolo [2,3-b]pyridin-5-yl]-3,5-dimethyl-isoxazole], the 50% inhibitory concentration (IC50) was < 10 µM with bromodomain and 1 to 10 µM in the experiment on MV-4-11.
For `COc1ncc(F)cc1Cc1c[nH]c2ncc(-c3c(C)noc3C)cc12` [P-0028, 4-[3-[(5-fluoro-2-methoxy-3-pyridyl)methyl]-1H-pyrrolo[2,3-b]pyridin-5-yl]-3,5-dimethyl-isoxazole] the same measures were < 10 µM and ≤ 1 µM.
On to `Cc1noc(C)c1-c1cnc2[nH]cc(C3=CCC(F)(F)CC3)c2c1` [P-0029, 4-[3-(4,4-difluorocyclohexen-1-yl)-1H-pyrrolo[2,3-b]pyridin-5-yl]-3,5-dimethyl-isoxazole], for which the IC50 with bromodomain is < 10 µM; in the experiment on MV-4-11, 1 to 10 µM.
For the compound `Cc1noc(C)c1-c1cnc2[nH]cc(C(O)C3CCC(F)(F)CC3)c2c1` (stereo not drawn) [P-0030, (4,4-difluorocyclohexyl)-[5-(3,5-dimethylisoxazol-4-yl)-1H-pyrrolo[2,3-b]pyridin-3-yl] methanol], the IC50 was < 10 µM with bromodomain and ≤ 1 µM with MV-4-11.
For `Cc1noc(C)c1-c1cnc2[nH]cc(C(=O)C3CCC(F)(F)CC3)c2c1` [P-0031, (4,4-difluorocyclohexyl)-[5-(3,5-dimethylisoxazol-4-yl)-1H-pyrrolo[2,3-b]pyridin-3-yl]methanone] the same measures were < 10 µM and 1 to 10 µM.
On the same counts, the results for `Cc1noc(C)c1-c1cnc2[nH]cc(CC3CCC(F)(F)CC3)c2c1` [P-0034, 4-[3-[(4,4-difluorocyclohexyl)methyl]-1H-pyrrolo[2,3-b]pyridin-5-yl]-3,5-dimethyl-isoxazole] are < 10 µM and ≤ 1 µM.
Consider `CCCCS(=O)(=O)n1ccc2ncc(-c3c(C)noc3C)cc21` [P-0036, 4-(1-butylsulfonylpyrrolo [3,2-b]pyridin-6-yl)-3,5-dimethyl-isoxazole], for which the half-maximal inhibitory concentration (IC50) with bromodomain was < 10 µM; in the experiment on MV-4-11, 1 to 10 µM.
For the compound `Cc1noc(C)c1-c1cnc2ccn(S(=O)(=O)C3CCCC3)c2c1` [P-0037, 4-(1-cyclopentylsulfonylpyrrolo [3,2-b]pyridin-6-yl)-3,5-dimethyl-isoxazole], the IC50 was < 10 µM in the experiment on bromodomain and ≤ 1 µM in the experiment on MV-4-11.
On the same counts, the results for `Cc1noc(C)c1-c1cnc2ccn(S(=O)(=O)c3ccccc3)c2c1` [P-0038, 4-[1-(benzenesulfonyl)pyrrolo [3,2-b]pyridin-6-yl]-3,5-dimethyl-isoxazole] are < 10 µM and ≤ 1 µM.
On the same counts, the results for `Cc1noc(C)c1-c1cnc2[nH]cc(C(O)c3cccc(OC(F)(F)F)c3)c2c1` (stereo not drawn) [P-0039, [5-(3,5-dimethylisoxazol-4-yl)-1H-pyrrolo[2,3-b]pyridin-3-yl]-[3-(trifluoromethoxy)phenyl] methanol] are < 10 µM and 1 to 10 µM.
Turning to `Cc1noc(C)c1-c1cnc2[nH]cc(C(O)c3ccccc3OC(F)F)c2c1` (stereo not drawn) [P-0040, [2-(difluoromethoxy)phenyl]-[5-(3,5-dimethylisoxazol-4-yl)-1H-pyrrolo[2,3-b]pyridin-3-yl] methanol], the IC50 is < 10 µM with bromodomain and ≤ 1 µM with MV-4-11.
On the same counts, the results for `Cc1noc(C)c1-c1cnc2[nH]cc(C(O)c3cccc4c3OC(F)(F)O4)c2c1` (stereo not drawn) [P-0041, (2,2-difluoro-1,3-benzodioxol-4-yl)-[5-(3,5-dimethylisoxazol-4-yl)-1H-pyrrolo[2,3-b]pyridin-3-yl] methanol] are < 10 µM and 1 to 10 µM.
With `CCc1[nH]c2ncc(-c3c(C)noc3C)cc2c1C(O)c1ccccc1Cl` (stereo not drawn) [P-0042, (2-chlorophenyl)-[5-(3,5-dimethylisoxazol-4-yl)-2-ethyl-1H-pyrrolo[2,3-b]pyridin-3-yl]methanol], the half-maximal inhibitory concentration (IC50) is < 10 µM with bromodomain and ≤ 1 µM in the experiment on MV-4-11.
For `CCc1[nH]c2ncc(-c3c(C)noc3C)cc2c1C(O)c1cccc(OC(F)(F)F)c1` (stereo not drawn) [P-0043, [5-(3,5-dimethylisoxazol-4-yl)-2-ethyl-1H-pyrrolo[2,3-b]pyridin-3-yl]-[3-(trifluoromethoxy)phenyl]methanol] the same measures were < 10 µM and 1 to 10 µM.
On the same counts, the results for `CCc1[nH]c2ncc(-c3c(C)noc3C)cc2c1C(O)C1CCC(F)(F)CC1` (stereo not drawn) [P-0044, (4,4-difluorocyclohexyl)-[5-(3,5-dimethylisoxazol-4-yl)-2-ethyl-1H-pyrrolo[2,3-b]pyridin-3-yl]methanol] are < 10 µM and ≤ 1 µM.
On the same counts, the results for `CCc1[nH]c2ncc(-c3c(C)noc3C)cc2c1C(OC)C1CCC(F)(F)CC1` (stereo not drawn) [P-0045, 4-[3-[(4,4-difluorocyclohexyl)-methoxy-methyl]-2-ethyl-1H-pyrrolo[2,3-b]pyridin-5-yl]-3,5-dimethyl-isoxazole] are < 10 µM and ≤ 1 µM.
With `Cc1noc(C)c1-c1cnc2[nH]cc(Cc3ccccc3OC(F)F)c2c1` [P-0047, 4-[3-[[2-(difluoromethoxy)phenyl]methyl]-1H-pyrrolo[2,3-b]pyridin-5-yl]-3,5-dimethyl-isoxazole], the IC50 in the experiment with bromodomain was < 10 µM; in the experiment on MV-4-11, 1 to 10 µM.

Values taken from US10501460B2, “Heterocyclic compounds and uses thereof” (Plexxikon Inc., priority 2013, dated 2019).
